The structures appear in SMILES notation. Converted amounts (≈) assume the structure as drawn.

What is called MIC is the least concentration at which growth counts as inhibited.

The test system of test [1] is C. pylori EI-612. As to the kind of experiment: MIC by agar dilution method, C. pylori clinical isolate EI-612. The format is cell-based. The note with it: Helicobacter pylori, EI612, 72 h; EI-612, clinical isolate; in vitro, 37° C., pH 7.0, 3 days, microaerophilic; read-out: antibiotic activity (MIC).
Test [2] concerns C. pylori EI-2. As to the kind of experiment: MIC by agar dilution method, C. pylori clinical isolate EI-2. Format: cell-based. The note with it: Helicobacter pylori, EI2, 72 h; EI-2, clinical isolate; in vitro, 37° C., pH 7.0, 3 days, microaerophilic; read-out: antibiotic activity (MIC).
The test system of test [3] is C. pylori EI-391. Briefly: MIC by agar dilution method, C. pylori clinical isolate EI-391. The format is cell-based. The note with it: Helicobacter pylori, EI391, 72 h; EI-391, clinical isolate (resistant); in vitro, 37° C., pH 7.0, 3 days, microaerophilic; read-out: antibiotic activity (MIC). In general terms: In agar dilution, organisms are placed on agar that contains the substance at set levels.

For test [4], the system named is C. pylori EI-930. As to the kind of experiment: MIC by agar dilution method, C. pylori clinical isolate EI-930. The format is cell-based. The conditions noted are these: Helicobacter pylori, EI930, 72 h; EI-930, clinical isolate; in vitro, 37° C., pH 7.0, 3 days, microaerophilic; read-out: antibiotic activity (MIC).
For test [5], the system named is C. pylori EI-933. As to the kind of experiment: MIC by agar dilution method, C. pylori clinical isolate EI-933. Format: cell-based. The conditions noted are these: Helicobacter pylori, EI933, 72 h; EI-933, clinical isolate; in vitro, 37° C., pH 7.0, 3 days, microaerophilic; read-out: antibiotic activity (MIC).
Test [6] deals with C. pylori NCTC11637. As to the kind of experiment: MIC by agar dilution method, C. pylori standard strain NCTC11637. The format is cell-based. The conditions noted are these: Helicobacter pylori, 72 h, in vitro, 37° C., pH 7.0, 3 days, microaerophilic, read-out: antibiotic activity (MIC).
Test [7] relates to C. pylori EI-925. Briefly: MIC by agar dilution method, C. pylori clinical isolate EI-925. The format is cell-based. The note with it: Helicobacter pylori, EI925, 72 h; EI-925, clinical isolate; in vitro, 37° C., pH 7.0, 3 days, microaerophilic; read-out: antibiotic activity (MIC).
The test system of test [8] is C. pylori EI-5. As to the kind of experiment: MIC by agar dilution method, C. pylori clinical isolate EI-5. Format: cell-based. The conditions noted are these: Helicobacter pylori, EI5, 72 h; EI-5, clinical isolate; in vitro, 37° C., pH 7.0, 3 days, microaerophilic; read-out: antibiotic activity (MIC).
Test [9] relates to C. pylori EI-429. Briefly: MIC by agar dilution method, C. pylori clinical isolate EI-429. The format is cell-based. The note with it: Helicobacter pylori, EI429, 72 h; EI-429, clinical isolate; in vitro, 37° C., pH 7.0, 3 days, microaerophilic; read-out: antibiotic activity (MIC).
In test [10] the test system is C. pylori EI-393. As to the kind of experiment: MIC by agar dilution method, C. pylori clinical isolate EI-393. Format: cell-based. The conditions noted are these: Helicobacter pylori, EI393, 72 h; EI-393, clinical isolate; in vitro, 37° C., pH 7.0, 3 days, microaerophilic; read-out: antibiotic activity (MIC).
For test [11], the system named is C. pylori EI-397. As to the kind of experiment: MIC by agar dilution method, C. pylori clinical isolate EI-397. The note with it: Helicobacter pylori, EI397, 72 h; EI-397, clinical isolate; in vitro, 37° C., pH 7.0, 3 days, microaerophilic; read-out: antibiotic activity (MIC). The format is cell-based.
Test [12] relates to C. pylori EI-36. As to the kind of experiment: MIC by agar dilution method, C. pylori clinical isolate EI-36. Format: cell-based. The note with it: Helicobacter pylori, EI36, 72 h; EI-36, clinical isolate; in vitro, 37° C., pH 7.0, 3 days, microaerophilic; read-out: antibiotic activity (MIC).
Test [13] has as its system C. pylori EI-46. Briefly: MIC by agar dilution method, C. pylori clinical isolate EI-46. The format is cell-based. The note with it: Helicobacter pylori, EI46, 72 h; EI-46, clinical isolate (resistant); in vitro, 37° C., pH 7.0, 3 days, microaerophilic; read-out: antibiotic activity (MIC).
The subject of test [14] is C. pylori EI-467. Briefly: MIC by agar dilution method, C. pylori clinical isolate EI-467. Format: cell-based. The note with it: Helicobacter pylori, EI467, 72 h; EI-467, clinical isolate; in vitro, 37° C., pH 7.0, 3 days, microaerophilic; read-out: antibiotic activity (MIC).
Test [15] concerns C. pylori NCTC11916. Briefly: MIC by agar dilution method, C. pylori standard strain NCTC11916. Format: cell-based. The conditions noted are these: Helicobacter pylori, 72 h, in vitro, 37° C., pH 7.0, 3 days, microaerophilic, read-out: antibiotic activity (MIC).
Test [16] has as its system C. pylori NCTC-11916, NCTC-11637, PCL-56, CPY-0011-1, KS-13, CLO-1 and CLO-6. The note with it: standard strains and clinical isolates; JP-A 3-173817; cited from earlier work.
For test [17], the system named is C. pylori. Briefly: antibiotic activity against C. pylori, overall conclusion. The format is cell-based. The conditions noted are these: compared with antibiotic substances / known compounds.

As to `CC1COc2c(N3CCN(C)CC3)c(F)cc3c(=O)c(C(=O)O)cn1c23` (centres unmarked) [(VIII), ofloxacin], the MIC in test [1] is 0.8 µg/mL (≈ 2.21 µM); in test [2], 0.8 µg/mL (≈ 2.21 µM); in [3], 25 µg/mL (≈ 69.2 µM); in test [4], 0.8 µg/mL (≈ 2.21 µM); in test [5], 0.4 µg/mL (≈ 1.11 µM); in test [6], 0.8 µg/mL (≈ 2.21 µM). Further, the MIC is 0.4 µg/mL (≈ 1.11 µM) in [7]; 0.8 µg/mL (≈ 2.21 µM) in test [8]; 0.8 µg/mL (≈ 2.21 µM) in test [9]; 0.8 µg/mL (≈ 2.21 µM) in test [10]; 0.8 µg/mL (≈ 2.21 µM) in test [11]; 0.8 µg/mL (≈ 2.21 µM) in test [12]. Also, the values for the MIC in test [13], in test [14] and in test [15] were 3.13 µg/mL (≈ 8.66 µM), 0.4 µg/mL (≈ 1.11 µM) and 0.8 µg/mL (≈ 2.21 µM), respectively.

Consider `CC[C@H]1OC(=O)[C@H](C)[C@@H](O[C@H]2C[C@@](C)(OC)[C@@H](O)[C@H](C)O2)[C@H](C)[C@@H](O[C@@H]2O[C@H](C)C[C@H](N(C)C)[C@H]2O)[C@](C)(O)C[C@@H](C)/C(=N\OCOCCOC)[C@H](C)[C@@H](O)[C@]1(C)O` [(VI), roxithromycin], for which the minimum inhibitory concentration (MIC) amounted to 0.2 µg/mL (≈ 0.239 µM) in [1]; 0.2 µg/mL (≈ 0.239 µM) in [2]; 50 µg/mL (≈ 59.7 µM) in test [3]; 0.4 µg/mL (≈ 0.478 µM) in test [4]; 0.1 µg/mL (≈ 0.119 µM) in test [5]; 0.4 µg/mL (≈ 0.478 µM) in [6]. For the same compound, the MIC in test [7], in [8], in test [9], in test [10], in [11] and in test [12] was 0.2 µg/mL (≈ 0.239 µM) in each case. Moreover, the figures for the minimum inhibitory concentration (MIC) in test [13], in test [14] and in [15] were more than 100 µg/mL, 0.2 µg/mL (≈ 0.239 µM) and 0.1 µg/mL (≈ 0.119 µM), respectively.

`Cc1c(OCC(F)(F)C(F)(F)C(F)F)ccnc1CSc1nc2ccccc2[nH]1` [JP-A 3-173817 compound (14), 2-[{3-Methyl-4-(2,2,3,3,4,4-hexafluorobutoxy)pyrid-2-yl}methylthio]-1H-benzimidazole]: in test [16], the antibiotic activity entry is on record as “activity against all the tested strains”.

For the compound `Cc1c(OCC(F)(F)F)ccnc1CSc1nc2ccccc2[nH]1` [(V), 2-[{3-Methyl-4-(2,2,2-trifluoroethoxy)pyrid-2-yl}methylthio]-1H-benzimidazole], the MIC in [1] was found to be 6.25 µg/mL (≈ 17.7 µM); in test [2], 25 µg/mL (≈ 70.7 µM); in [3] it was 12.5 µg/mL (≈ 35.4 µM); in [4] it was 12.5 µg/mL (≈ 35.4 µM); in [5], 12.5 µg/mL (≈ 35.4 µM); in test [6], 25 µg/mL (≈ 70.7 µM). Further, the minimal inhibitory concentration (MIC) came out at 12.5 µg/mL (≈ 35.4 µM) in test [7]; 12.5 µg/mL (≈ 35.4 µM) in test [8]; 25 µg/mL (≈ 70.7 µM) in test [9]; 25 µg/mL (≈ 70.7 µM) in [10]; 25 µg/mL (≈ 70.7 µM) in test [11]; 12.5 µg/mL (≈ 35.4 µM) in [12]. Besides, the MIC in [13], in [14] and in [15] was 12.5 µg/mL (≈ 35.4 µM) throughout.

Turning to `COCCCOc1ccnc(CSc2nc3ccccc3[nH]2)c1C` [(II), 2-[(4-(3-Methoxypropoxy)-3-methylpyridine-2-yl)-methylthio]-1H-benzimidazole], the MIC worked out at 0.8 µg/mL (≈ 2.33 µM) in test [1]; 0.4 µg/mL (≈ 1.16 µM) in [2]; 1.56 µg/mL (≈ 4.54 µM) in test [3]; 0.4 µg/mL (≈ 1.16 µM) in test [4]; 0.8 µg/mL (≈ 2.33 µM) in test [5]; 0.8 µg/mL (≈ 2.33 µM) in [6]. For the same compound, the minimal inhibitory concentration (MIC) in [7] amounted to 0.4 µg/mL (≈ 1.16 µM); in test [8] it was 0.2 µg/mL (≈ 0.582 µM); in test [9], 1.56 µg/mL (≈ 4.54 µM); in [10], 1.56 µg/mL (≈ 4.54 µM); in [11], 1.56 µg/mL (≈ 4.54 µM); in test [12] it was 0.4 µg/mL (≈ 1.16 µM). Moreover, the MIC was 0.4 µg/mL (≈ 1.16 µM) in [13], 1.56 µg/mL (≈ 4.54 µM) in test [14] and 0.2 µg/mL (≈ 0.582 µM) in [15]. For the same compound, the C. pylori-eradicating activity result in test [17] is reported as “the same C. pylori-eradicating activity as an antibiotic substance”.

The values are drawn from patent US5916904A, “Antimicrobial agent” (Eisai Co., Ltd., priority 1992, dated 1999).
